In PubChem BioAssay AID1963850 (Molecular Pharmacology Branch, DTP, NCI, 2024):
Values joined by “and” are separate entries in the source; they are usually repeats but may differ in a detail not shown here. Equal values may be shown once.

Test system: 192522-019-R-J2-PDC complex tumor spheroid viability
Test: Anticancer human tumor 192522-019-R-J2-PDC patient-derived colon adenocarcinoma cell line growth inhibition [POLQ]
Conditions: for viability, T/C: stronger effect = lower value; for IC50: curve of compound
Procedure: Multicellular complex tumor spheroid response to Polymerase (POL) inhibitors (novobiocin, ART-558, RP6685) in combination with a variety of drugs and investigational agents in selected tumor cell lines
The POL inhibitors (novobiocin, ART-558, and RP6685) were evaluated both individually and in combination with standard of care and investigational anticancer small molecules within a complex spheroid model of solid tumors. . Complex spheroids include a stromal component modeled by human endothelial cells (HUVEC) and fibroblasts modeled by human mesenchymal stem cells (MSCs). The concentration ranges selected for each drug and investigational agent were based upon clinically achievable concentrations if the clinical Cmax of the agent was known.
Compounds. The drugs and investigational agents: novobiocin (NSC847541), ART-558 (NSC835418), RP-6685 (NSC848927), peposertib (NSC802822), ceralasertib (NSC780249), elimusertib (NSC800525), camonsertib (NSC841442), AZD-1390 (NSC803789), olaparib (NSC753686), talazoparib (NSC767125), rucaparib (NSC756644), sotorasib (NSC818433), MRTX-1133 (NSC836407), SN-38 (NSC673596), topotecan (NSC609699), epotoside (NSC141540), doxorubicin (NSC123127), gemcitabine (NSC613327), 5-fluorouracil (NSC19893), paclitaxel (NSC125973), vemurafenib (NSC761431), MSA-2 (NSC828583), SN-011 (NSC837082), adavosertib (NSC754352), prexasertib (NSC758257), carboplatin (NSC241240) and oxaliplatin (NSC266046), were obtained from the National Cancer Institute (NCI) Developmental Therapeutics Program Chemical Repository (21). The FDA-approved anticancer drug set is available from the Developmental Therapeutics Program at https://dtp.cancer.gov/organization/dscb/obtaining/. […] The stock solutions were prepared in dimethyl sulfoxide (DMSO, Sigma-Aldrich, St. Louis, MO, cat. D2650), except for the platinum compounds which were prepared in saline (Quality Biological, Gaithersburg, MD, cat. 114-055-101), at 800-fold the tested concentration and stored at -70 degrees C prior to their use. All drugs and investigational agents were tested over a range starting from a high concentration at or near the clinical Cmax and decreasing in half-log increments. If the clinical Cmax for an agent had not been determined, the highest concentration tested was 10 microM, except for SN-38, which was tested at a high concentration of 1 microM.
Cell Culture. All cells were maintained in an incubator at 37 degrees C and 5% CO2 with 95% humidity. The PDC lines were cultured according to standard operating procedures established by the NCI PDMR (https://pdmr.cancer.gov). Table 3 of the manuscript, lists the cell lines along with the number of the three cell types plated to form the mct-spheroids and media for tumor cell growth. After thawing, all PDC lines, except 997537-175-T-J1-PDC and 415267-285-R-J2-PDC, were cultured in Matrigel-coated flasks prepared with a working solution of 1X Ham's F-12 nutrient mix, without supplementation (Thermo Fisher Scientific, cat. 11765054), 100 U/mL penicillin-streptomycin (Thermo Fisher Scientific, cat. 15140122), and 2.5% Matrigel (Corning Inc., Corning, NY, cat. 354248) for the first three passages. The two PDC lines 997537-175-T-J1-PDC and 415267-285-R-J2-PDC were cultured on uncoated flasks. The 857933-349-R-J2-PDC line was cultured in 6C/Colon 1B media containing advanced DMEM/F-12 (Thermo Fisher Scientific, cat. 12634028), 10 mM HEPES (Thermo Fisher Scientific, cat. 15630080), 1X GlutaMAX supplement (Thermo Fisher Scientific, cat. 35050061), 0.1 mg/mL primocin (InvivoGen, San Diego, CA, cat. ant-pm-2), 10% defined fetal bovine serum, heat inactivated (HyClone Laboratories Inc., Logan, UT, cat. SH30070.03HI), 50% L-WRN conditioned media (ATCC, cat. CRL-3276), 1.25 mM N-Acetyl-L-cysteine (Sigma-Aldrich, cat. A9165), 10 mM nicotinamide (Sigma-Aldrich, cat. N0636), 1X B-27 supplement (Thermo Fisher Scientific, cat. 17504044), 1X N-2 supplement (Thermo Fisher Scientific, cat. […]
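Also: spheroids exposed to drugs for seven days before reading.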
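For viability, T/C in this document: 100% = DMSO vehicle control viability in luminescence.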

Structure (SMILES) | viability, T/C (compound 0.0316 µM) | viability, T/C (compound 0.1 µM) | viability, T/C (compound 0.316 µM) | viability, T/C (compound 1 µM) | viability, T/C (compound 3.16 µM) | viability, T/C (compound 10 µM) | IC50 | viability, T/C (compound 0.00316 µM) | viability, T/C (compound 0.01 µM) | viability, T/C (compound 0.00949 µM) | viability, T/C (compound 0.03 µM) | viability, T/C (compound 0.0949 µM) | viability, T/C (compound 0.3 µM) | viability, T/C (compound 0.949 µM) | viability, T/C (compound 3 µM) | viability, T/C (compound 0.000316 µM) | viability, T/C (compound 0.001 µM)
C#Cc1c(F)ccc2cc(O)cc(-c3ncc4c(N5CC6CCC(C5)N6)nc(OCC56CCCN5CC(F)C6)nc4c3F)c12 (stereo not given) | 102% and 98.2% and 109% | 93.6% and 81.8% and 87.3% | 73.3% and 77.1% and 80.5% | 78.4% and 77.9% and 83.4% | 78.9% and 73.7% and 70.6% | 67.8% and 64.1% and 64.3% | > 10000 nM | – | – | – | – | – | – | – | – | – | –
C=CC(=O)N1CCN(c2nc(=O)n(-c3c(C)ccnc3C(C)C)c3nc(-c4c(O)cccc4F)c(F)cc23)C(C)C1 (stereo not given) | 107% (2×) and 105% | 92.4% and 101% and 94.3% | 95% and 94.1% and 97.7% | 106% and 102% and 109% | 104% and 113% and 112% | 104% and 109% and 108% | > 10000 nM | – | – | – | – | – | – | – | – | – | –
C=CCn1c(=O)c2cnc(Nc3ccc(N4CCN(C)CC4)cc3)nc2n1-c1cccc(C(C)(C)O)n1 | 97.5% and 100% and 99.1% | 102% (2×) and 106% | 85.8% and 97% and 86.1% | 24.8% and 36.2% and 38.5% | – | – | 627 nM and 773 nM and 764 nM | 101% and 105% and 108% | 97.8% and 97.2% and 97% | – | – | – | – | – | – | – | –
CC(=O)O[C@H]1C(=O)[C@@]2(C)[C@H]([C@H](OC(=O)c3ccccc3)[C@]3(O)C[C@H](OC(=O)[C@H](O)[C@@H](NC(=O)c4ccccc4)c4ccccc4)C(C)=C1C3(C)C)[C@]1(OC(C)=O)CO[C@@H]1C[C@@H]2O | – | – | – | – | – | – | > 3000 nM | – | – | 90.9% and 93% and 91.4% | 61.5% and 61.7% and 71.9% | 56.5% and 58.9% and 54.1% | 54.5% and 54.7% and 52.9% | 54.3% and 56.4% and 57.7% | 53% and 61.1% and 54.8% | – | –
CC(C)n1c(=O)n(C)c2cnc3cc(F)c(-c4ccc(OCCCN5CCCCC5)nc4)cc3c21 | 102% and 106% and 98.7% | 87.7% and 95.6% and 105% | 89.9% and 108% and 92.3% | 114% and 122% and 112% | 118% (2×) and 130% | 92.8% and 101% and 90.6% | > 10000 nM | – | – | – | – | – | – | – | – | – | –
CC1COCCN1c1cc(-c2ccnn2C)c2ccnc(-c3ccn[nH]3)c2n1 (stereo not given) | 97.7% and 93.8% and 106% | 76% and 76.1% and 87.4% | 43.4% and 45% and 54.1% | 33.5% (2×) and 32.2% | 35.1% and 40.1% and 41% | 48% and 44.6% and 47.2% | 246 nM and 256 nM and 400 nM | – | – | – | – | – | – | – | – | – | –
CC1COCCN1c1cc(C2(O)CC3CCC(C2)O3)c2cnn(-c3ccn[nH]3)c2n1 (stereo not given) | 108% and 105% and 100% | 70.7% and 76.9% and 78.7% | 42% and 35.6% and 46% | 33.8% and 33.4% and 34.9% | 45.5% and 42.6% and 44.3% | 49.2% and 50.7% and 51.2% | 234 nM and 235 nM and 272 nM | – | – | – | – | – | – | – | – | – | –
CC1COCCN1c1cc(C2(S(C)(=N)=O)CC2)nc(-c2ccnc3[nH]ccc23)n1 (stereo not given) | 102% (2×) and 110% | 90% and 103% and 101% | 97% and 97.9% and 103% | 90.6% and 100% and 91.6% | 59.7% and 64.2% and 56.4% | 31.6% and 37.1% and 31.1% | 4700 nM and 5780 nM and 4210 nM | – | – | – | – | – | – | – | – | – | –
CCCS(=O)(=O)Nc1ccc(F)c(C(=O)c2c[nH]c3ncc(-c4ccc(Cl)cc4)cc23)c1F | 96.5% and 100% and 106% | 108% and 104% and 96.8% | 105% and 96.5% and 104% | 106% and 108% and 97.6% | 116% and 106% and 120% | 74% and 82% and 94.8% | > 10000 nM | – | – | – | – | – | – | – | – | – | –
CC[C@@]1(O)C(=O)OCc2c1cc1n(c2=O)Cc2cc3c(CN(C)C)c(O)ccc3nc2-1 | 91.9% and 95.4% and 91.8% | 70.9% and 76% and 51.1% | – | – | – | – | > 100 nM | 106% and 97.8% and 101% | 100% and 106% and 103% | – | – | – | – | – | – | 113% and 103% and 94.6% | 94.3% and 94.9% and 92.1%
CCc1c2c(nc3ccc(O)cc13)-c1cc3c(c(=O)n1C2)COC(=O)[C@]3(O)CC | 70.5% and 78% and 56.7% | 56.5% and 58.4% and 51.8% | 44.4% and 42.9% and 32.3% | 27.6% and 37.6% and 25.5% | – | – | 128 nM and 200 nM and 50.2 nM | 109% and 91.9% and 85.5% | – | – | – | – | – | – | – | – | –
CCc1cc2c(N3CCc4c(cc(Cn5ccnc5)cc4-c4cn(C)nc4C(F)(F)F)C3=O)cc(C)nc2c(OC)n1 | 109% and 107% and 102% | 91.4% and 91% and 94.7% | 80.7% and 86.7% and 85.3% | 80.1% and 82% and 77.7% | 73.1% and 73% and 75.4% | 68.1% and 75.8% and 68.3% | > 10000 nM | – | – | – | – | – | – | – | – | – | –
CCc1cc2c(N3CCc4c(cc(Cn5ccnc5)cc4-c4cn(C)nc4C(F)(F)F)C3=O)ccnc2c(OC)n1 | 102% (2×) and 107% | 84.3% and 91.4% and 86.7% | 88.2% and 90.7% and 92.4% | 87.8% and 81.3% and 83.7% | 76.5% and 75.1% and 70.2% | 65.6% and 72.1% and 73% | > 10000 nM | – | – | – | – | – | – | – | – | – | –
